{"source": "patent US9622996B2", "about": "“Use of adrenergic beta-E-receptor blockers in cancer treatment” (priority 2012, dated 2017)", "key": {"MCF-7 cells": {"system": "MCF-7 cells", "experiment": "Western blot of p53 and SIRT1 in MCF-7 cells treated with SR59230A", "type": "cell-based", "conditions": "24 h, with increasing SR59230A concentration", "procedure": "MCF-7 cells were treated with SR59230A at different concentrations. After 24 h, the cells were lysed to extract total protein. The protein concentration was determined by BCA method. 10 μg of the protein was used to perform 10% SDS PAGE, and then transferred to a PVDF membrane. The membrane was blocked for 1 h with TBST (10 mmol/L Tris HCl, pH 7.5, 150 mmol/L NaCl, 0.1% Tween 20) containing 4% fat-free milk, and incubated overnight with p53 antibody (1:1000) and SIRT1 antibody (1:1000) at 4° C. The membrane was further incubated with secondary antibodies for 1 h after washing, followed by ECL color development. The same procedure was repeated 3 times. The gray values of protein bands were obtained through Fluorchem 8900 software and the ratio of target band to reference band (GAPDH) was calculated. Results are shown in FIGS. 1 and 2, wherein the expression level of p53 was increased as the increase of SR59230A concentration, while SIRT1 was decreased."}, "H1299 lung cancer cells": {"system": "H1299 lung cancer cells", "experiment": "Apoptosis of H1299 lung cancer cells", "type": "cell-based", "procedure": "(§1) A target sequence was selected from the DNA sequence of β3AR gene using computer program. The DNA fragment of the target sequence was synthesized and cloned on a vector. Human U6 promoter was cloned to pcDNA3/neo vector to clone DNA fragment of shRNA. The plasmid vector was tranfected into cells using lipofection2000. 48 h following the tranfection, siRNA was expressed in the cells. The cells were subjected to Annexin V/PI double staining. Apoptosis rate was determined by flow cytometry."}, "HL-60 leukaemia cells": {"system": "HL-60 leukaemia cells", "experiment": "miR-16-1/miR-15a expression, apoptosis and mitochondrial readouts in HL-60 cells", "type": "cell-based", "conditions": "HL-60, 10^−7M", "procedure": "(§2) SR59230A promoted cell apoptosis by increase expression of miR-16-1 and miR-15a in HL-60 and K562 leukaemia cells. SR59230A at 10^−7M was used to treat HL-60 and K562 leukaemia cells. 8 h following the treatment, total microRNA was extract and then reversely transcribed for quantitative PCR to determine the expression of miR-16-1 and miR-15a. Flow cytometry was used to detect earlier cell apoptosis label Annexin V/PI and apoptosis rate. MitoTracker Red CMXRos was used to detect number of mitochondrion. JC1 was used to determine mitochondrial membrane potential. Autophagosome was determined by monodansylcadaverine (MDC) staining, and observed and countered under transmission electron microscope. Intracellular ATP level was determined by ATP Kit. […] SR59230A could decrease mitochondrial membrane potential of HL-60 and K562 cells, induce mitophagy, decrease mitochondrial content and reduce intracellular ATP level."}, "[1]": {"system": "prostatic cancer cells PC-3", "experiment": "Autophagy of prostatic cancer cells PC-3 (FIG. 17)", "type": "cell-based, Human", "conditions": "FIG. 17 legend only"}, "K562 leukaemia cells": {"system": "K562 leukaemia cells", "experiment": "miR-16-1/miR-15a expression, apoptosis and mitochondrial readouts in K562 cells", "type": "cell-based", "conditions": "K562, 10^−7M", "procedure": "as §2"}, "H1975 lung cancer cells": {"system": "H1975 lung cancer cells", "experiment": "Apoptosis of H1975 lung cancer cells", "type": "cell-based", "procedure": "as §1"}, "MCF7 cells": {"system": "MCF7 cells", "experiment": "Mitochondrial autophagy in MCF7 cells (MitoTracker, LC3II Western blot)", "type": "cell-based", "conditions": "MCF7, 10^−7M, 18 h", "procedure": "β3 receptor regulated mitochondrial autophagy. MCF7 cells were treated by SR59230A (10^−7M) for 18 h. MitoTracker was used to label mitochondrion at 37° C. for 20 min. The cells were washed with PBS for 3 times and fluorescent detection was then carried out by fluorescent confocal microscopy and flow cytometry. The autophagy labeling protein LC3II was measured by Western blot."}, "[2]": {"system": "multidrug resistance-associated protein 1 (MRP1)", "experiment": "5-CFDA (MRP1 substrate) efflux staining in PC-3 cells", "type": "cell-based, Human", "conditions": "PC-3, 10^−7M, 18 h, confocal microscopy", "procedure": "Beta-3 receptor activated multidrug resistance-associated protein 1 (MRP1). Human prostatic cancer cells PC-3 was used to be treated with SR59230A and BRL37344, each at 10^−7M, for 18 h and then stained with substrate of MRP1, 5-CFDA and observed under confocal microscopy."}, "MCF-7 implant tumor": {"system": "MCF-7 implant tumor", "experiment": "MCF-7 implant tumor model in nude mice", "type": "in vivo", "procedure": "SR59230A reduced implant tumor volume in MCF-7 nude mice. 10^7 of MCF-7 cells were subcutaneously injected into 5-week old female nude mice to establish implant tumor model. 10 days followed the injection, tumor volume increased to about 250 mm^3. The mice were randomly divided into two groups with each group having 8 mice. The treatment group was peritoneally injected with SR56230A at 100 nmol for each mouse. The injection was carried every two days and lasted for 5 weeks. The control group is administrated with solvents with same volume. The length, width and height of tumors were determined using a vernier caliper prior to each administration, so as to calculate tumor volume. The tumor growth curve was shown in FIG. 8, in which SR59230A treated mice had slower implant tumor growth rat when compared to control group (FIG. 9). […] In order to determine expression levels of phospho-4E-BP1(Thr37/46) and p62, the tumor tissue was obtained for paraffin embedding and section and then immunohistochemistry, and proteins were extracted from the tumor tissue for Western blot."}, "[3]": {"system": "MCF-7 breast carcinoma cells", "experiment": "Annexin V/PI flow cytometry, apoptosis and cell cycle of MCF-7 cells", "type": "cell-based", "conditions": "P<0.01", "procedure": "as §1"}, "[4]": {"system": "rat myocardial infarction models", "experiment": "Rat myocardial infarction (heart failure) model, ligation of left coronary artery", "type": "in vivo", "conditions": "1 mg/kg/day intraperitoneal, 4 weeks", "procedure": "In rat myocardial infarction models, activation of the β-3 receptor could increase level of SIRT1 in cardiomyocyte, inhibit expression of p53, improve the cardiac function and achieve anti-apoptosis effect. The myocardial infarction model was created by ligation of anterior descending branch of rat left coronary artery. BRL37344 was intraperitoneally injected at 1 mg/kg/day, and heart B-ultrasonography was performed after 4 weeks. Heart tissue was determined for apoptosis (tunel method) and expression levels of SIRT1 and p53 (western blot). The ratio of left ventricular weight to body weight (LVW/BW) is determined. It can be seen from the results shown in FIGS. 3 to 5, that BRL37344 decreases p53 expression, cardiac cell apoptosis, and value of LVW/BW of heart failure rat, increases SIRT1 expression, alleviate cardiac hypertrophy and improve cardiac function."}, "rat cardiomyocyte": {"system": "rat cardiomyocyte", "experiment": "Western blot of mTOR and Rictor proteins (mTOR/Rictor complex)", "type": "cell-based", "conditions": "10^−7M, 24 h, compared to the control shRNA", "procedure": "Activation of the β3 receptor could increase mTOR/Rictor complex in MCF-7 cells. shRNA of β3 adrenergic receptor, control shRNA, BRL37344 and SR59230A were used to treat rat cardiomyocyte each at 10^−7M. After 24 h, total protein was extracted and subjected to western blot to determine the expression amount of mTOR and Rictor proteins."}, "[5]": {"system": "cardiac fibroblast of rats", "experiment": "mTOR/α-Tubulin and Rictor/α-Tubulin double staining in cardiac fibroblast", "type": "cell-based, rat", "conditions": "10^−7M, confocal microscope", "source_text": "Beta-3 receptor promoted binding of mTORC2 to α-Tubulin in spindle apparatus. BRL37344 was used to treat cardiac fibroblast of rats at 10^−7M. The cells were undergone mTOR/α-Tubulin immunohistochemical double staining and Rictor/α-Tubulin immunohistochemical double staining, and observed under confocal microscope."}, "[6]": {"system": "adipose-derived stem cells of rats", "experiment": "β-Galactosidase staining of adipose-derived stem cells", "type": "cell-based, rat", "conditions": "10^−7M, 24 h, compared with SR59230A", "procedure": "Blockage of the β-3 receptor could increase level of β-galactosidase in adipose-derived stem cells and promote stem cell aging. BRL37344 and SR59230A were used to treat adipose-derived stem cells of rats each at 10^−7M. After 24 h, cells were fixed using paraformaldehyde, and stained and photographed according to the specification of β-Galactosidase Staining Kit. BRL37344 decreased the level of β-galactosidase in adipose-derived stem cells when compared with SR59230A, indicating agonisting of adrenergic β3 receptors of adipose-derived stem cells achieves anti-aging effect."}, "[7]": {"conditions": "8 h, quantitative PCR, compared to control"}, "[8]": {"conditions": "Annexin V/PI flow cytometry, P<0.01"}, "[9]": {"conditions": "100 nmol per mouse peritoneally every two days for 5 weeks"}, "[10]": {"conditions": "tumor tissue, immunohistochemistry and Western blot"}}, "data": [{"smiles": "CCc1ccccc1OC[C@@H](O)CN[C@H]1CCCc2ccccc21", "note": "[SR59230A]", "values": [{"measurement": "expression level of SIRT1", "setting": "MCF-7 cells", "value": "decreased"}, {"measurement": "expression level of p53", "setting": "MCF-7 cells", "value": "increased"}, {"measurement": "apoptosis of H1299 cells", "setting": "H1299 lung cancer cells", "value": "promoted apoptosis"}, {"measurement": "mitophagy", "setting": "HL-60 leukaemia cells", "value": "induce"}, {"measurement": "expression of miR-15a", "setting": "HL-60 leukaemia cells; [7]", "value": "significantly increased"}, {"measurement": "expression of miR-16-1", "setting": "HL-60 leukaemia cells; [7]", "value": "significantly increased"}, {"measurement": "intracellular ATP level", "setting": "HL-60 leukaemia cells; ATP Kit", "value": "reduce"}, {"measurement": "apoptosis rate", "setting": "HL-60 leukaemia cells; [8]", "value": "increased"}, {"measurement": "mitochondrial membrane potential", "setting": "HL-60 leukaemia cells; JC1", "value": "decrease"}, {"measurement": "mitochondrial content", "setting": "HL-60 leukaemia cells; MitoTracker Red CMXRos", "value": "decrease"}, {"measurement": "autophagy of prostatic cancer cells PC-3", "setting": "[1]", "value": "increased"}, {"measurement": "mitophagy", "setting": "K562 leukaemia cells", "value": "induce"}, {"measurement": "expression of miR-15a", "setting": "K562 leukaemia cells; [7]", "value": "significantly increased"}, {"measurement": "expression of miR-16-1", "setting": "K562 leukaemia cells; [7]", "value": "significantly increased"}, {"measurement": "intracellular ATP level", "setting": "K562 leukaemia cells; ATP Kit", "value": "reduce"}, {"measurement": "apoptosis rate", "setting": "K562 leukaemia cells; [8]", "value": "increased"}, {"measurement": "mitochondrial membrane potential", "setting": "K562 leukaemia cells; JC1", "value": "decrease"}, {"measurement": "mitochondrial content", "setting": "K562 leukaemia cells; MitoTracker Red CMXRos", "value": "decrease"}, {"measurement": "apoptosis of H1975 cells", "setting": "H1975 lung cancer cells", "value": "promoted apoptosis"}, {"measurement": "autophagosome", "setting": "MCF7 cells", "value": "increased"}, {"measurement": "mitochondrion amount", "setting": "MCF7 cells; MitoTracker", "value": "significantly decreased"}, {"measurement": "LC3II expression", "setting": "MCF7 cells; Western blot", "value": "increased"}, {"measurement": "5-CFDA efflux (MRP1 substrate)", "setting": "[2]", "value": "inhibited"}, {"measurement": "relative tumor growth rate T/C (%)", "setting": "MCF-7 implant tumor; [9]", "value": 39.80, "unit": "%"}, {"measurement": "tumor inhibition rate", "setting": "MCF-7 implant tumor; [9]", "value": 57.97, "unit": "%"}, {"measurement": "tumor volume based on the control group", "setting": "MCF-7 implant tumor; [9]", "value": 42.03, "unit": "%"}, {"measurement": "implant tumor growth rate compared to control group", "setting": "MCF-7 implant tumor; 100 nmol per mouse peritoneally every two days for 5 weeks, tumor growth curve", "value": "slower"}, {"measurement": "glycolysis in tumors", "setting": "MCF-7 implant tumor; PET/CT detection", "value": "inhibited"}, {"measurement": "expression of p62", "setting": "MCF-7 implant tumor; [10]", "value": "reduced"}, {"measurement": "expression of phospho-4E-BP1", "setting": "MCF-7 implant tumor; [10]", "value": "reduced"}, {"measurement": "mTOR activity in tumors", "setting": "MCF-7 implant tumor; [10]", "value": "inhibited"}, {"measurement": "mitophagy in tumor cells", "setting": "MCF-7 implant tumor; tumor tissue, transmission electron microscope", "value": "enhanced"}, {"measurement": "apoptosis rate versus control group", "setting": "[3]", "value": "significant increase"}]}, {"smiles": "C[C@H](Cc1ccc(OCC(=O)O)cc1)NC[C@H](O)c1cccc(Cl)c1", "note": "[BRL37344]", "values": [{"measurement": "cardiac hypertrophy", "setting": "[4]", "value": "alleviate"}, {"measurement": "ratio of left ventricular weight to body weight (LVW/BW)", "setting": "[4]", "value": "decreases"}, {"measurement": "cardiac function", "setting": "[4]; heart B-ultrasonography", "value": "improve"}, {"measurement": "cardiac cell apoptosis", "setting": "[4]; tunel method", "value": "decreases"}, {"measurement": "SIRT1 expression in heart tissue", "setting": "[4]; western blot", "value": "increases"}, {"measurement": "p53 expression in heart tissue", "setting": "[4]; western blot", "value": "decreases"}, {"measurement": "mTOR/Rictor complex", "setting": "rat cardiomyocyte", "value": "increased"}, {"measurement": "binding of Rictor to α-Tubulin", "setting": "[5]", "value": "promoted"}, {"measurement": "binding of mTOR to α-Tubulin in spindle apparatus", "setting": "[5]", "value": "promoted"}, {"measurement": "level of β-galactosidase", "setting": "[6]", "value": "decreased"}]}]}
